The values below come from US4399132A, “7-Beta-[alpha-syn-methoxyimino-alpha-(2-aminothiazol-4-yl)-aceta mido]-3-[(1,2,3-thiadiazol-5-ylthio)methyl]-3-cephem-4-carboxylic acid and C1 -C6 alkyl derivatives thereof” (American Cyanamid Company, priority 1981, dated 1983).

Values after ≈ are worked out from the molar mass of the structure shown. Like-named read-outs stand apart in the source and are kept apart here.

This experiment concerns Staphylococcus aureus. Put plainly: Mueller-Hinton agar dilution method (MIC). The class given is cell-based.
The mark [1] stands for this setting: beta-lactamase negative, strain SSC 79-3, Table II, read-out: Minimal Inhibitory Concentration.
[2] abbreviates: beta-lactamase negative, strain SSC 79-5, Table II, read-out: Minimal Inhibitory Concentration.
Where [3] appears, read: beta-lactamase negative, strain SSC 79-7, Table II, read-out: Minimal Inhibitory Concentration.
The mark [4] stands for this setting: beta-lactamase negative, strain SSC 79-9, Table II, read-out: Minimal Inhibitory Concentration.
[5] abbreviates: beta-lactamase negative, strain SSC 79-10, Table II, read-out: Minimal Inhibitory Concentration.
The mark [6] stands for this setting: beta-lactamase negative, strain SSC 79-11, Table II, read-out: Minimal Inhibitory Concentration.
Setting [7] is: beta-lactamase negative, strain SSC 79-14, Table II, read-out: Minimal Inhibitory Concentration.
Setting [8] is: beta-lactamase negative, strain SSC 79-15, Table II, read-out: Minimal Inhibitory Concentration.
The mark [9] stands for this setting: beta-lactamase negative, strain SSC 79-17, Table II, read-out: Minimal Inhibitory Concentration.
[10] abbreviates: beta-lactamase positive, strain SSC 79-24, Table II, read-out: Minimal Inhibitory Concentration.
Where [11] appears, read: beta-lactamase positive, strain SSC 79-27, Table II, read-out: Minimal Inhibitory Concentration.
[12] abbreviates: beta-lactamase positive, strain SSC 79-28, Table II, read-out: Minimal Inhibitory Concentration.
The mark [13] stands for this setting: beta-lactamase positive, strain SSC 79-36, Table II, read-out: Minimal Inhibitory Concentration.
Setting [14] is: beta-lactamase positive, strain SSC 79-38, Table II, read-out: Minimal Inhibitory Concentration.
Where [15] appears, read: beta-lactamase positive, strain SSC 79-39, Table II, read-out: Minimal Inhibitory Concentration.
The mark [16] stands for this setting: beta-lactamase positive, strain SSC 79-41, Table II, read-out: Minimal Inhibitory Concentration.
Setting [17] is: beta-lactamase positive, strain SSC 79-44, Table II, read-out: Minimal Inhibitory Concentration.
Where [18] appears, read: beta-lactamase positive, strain SSC 79-47, Table II, read-out: Minimal Inhibitory Concentration.

With `CCN1CCN(C(=O)N[C@@H](C(=O)N[C@@H]2C(=O)N3C(C(=O)O)=C(CSc4nnnn4C)CS[C@H]23)c2ccc(O)cc2)C(=O)C1=O` [Compound VII, Cefaperazone], the MIC is 0.5 µg/mL (≈ 0.774 µM) under setting [1]; 2 µg/mL (≈ 3.1 µM) under setting [2]; 0.5 µg/mL (≈ 0.774 µM) under setting [3]; 0.5 µg/mL (≈ 0.774 µM) under setting [4]; 0.5 µg/mL (≈ 0.774 µM) under setting [5]; 0.25 µg/mL (≈ 0.387 µM) under setting [6]. Further, the MIC reads like this: under setting [7], 2 µg/mL (≈ 3.1 µM); under setting [8], 2 µg/mL (≈ 3.1 µM); under setting [9], 1 µg/mL (≈ 1.55 µM); under setting [10], 128 µg/mL (≈ 198 µM); under setting [11], 1 µg/mL (≈ 1.55 µM); under setting [12], 2 µg/mL (≈ 3.1 µM). Also, the MIC is 2 µg/mL (≈ 3.1 µM) under setting [13]; 1 µg/mL (≈ 1.55 µM) under setting [14]; 2 µg/mL (≈ 3.1 µM) under setting [15]; 2 µg/mL (≈ 3.1 µM) under setting [16]; 1 µg/mL (≈ 1.55 µM) under setting [17]; 2 µg/mL (≈ 3.1 µM) under setting [18].
In the case of `CO[C@@]1(NC(=O)C(C(=O)O)c2ccc(O)cc2)C(=O)N2C(C(=O)O)=C(CSc3nnnn3C)CO[C@@H]21` (stereo partly drawn) [Compound V, Moxalactam], the MIC under setting [1] is 2 µg/mL (≈ 3.84 µM); the MIC under setting [2] came to 8 µg/mL (≈ 15.4 µM); the MIC under setting [3] turned out to be 2 µg/mL (≈ 3.84 µM); the MIC under setting [4] stood at 2 µg/mL (≈ 3.84 µM); the MIC under setting [5] was determined as 2 µg/mL (≈ 3.84 µM); the MIC under setting [6] was 2 µg/mL (≈ 3.84 µM). Besides, the MIC under setting [7] was determined as 4 µg/mL (≈ 7.69 µM); the MIC under setting [8] stood at 8 µg/mL (≈ 15.4 µM); the MIC under setting [9] was 4 µg/mL (≈ 7.69 µM); the MIC under setting [10] is 32 µg/mL (≈ 61.5 µM); the MIC under setting [11] came out at 4 µg/mL (≈ 7.69 µM); the MIC under setting [12] came to 4 µg/mL (≈ 7.69 µM). Also, the MIC turned out to be 4 µg/mL (≈ 7.69 µM) under setting [13]; 2 µg/mL (≈ 3.84 µM) under setting [14]; 4 µg/mL (≈ 7.69 µM) under setting [15]; 4 µg/mL (≈ 7.69 µM) under setting [16]; 2 µg/mL (≈ 3.84 µM) under setting [17]; 4 µg/mL (≈ 7.69 µM) under setting [18].
Regarding `CO/N=C(\C(=O)N[C@@H]1C(=O)N2C(C(=O)O)=C(COC(C)=O)CS[C@H]12)c1csc(N)n1` [Compound II], the MIC runs as follows: (read-out: Minimal Inhibitory Concentration, beta-lactamase negative, strain SSC 79-3, Table II) 0.5 µg/mL (≈ 1.1 µM); (read-out: Minimal Inhibitory Concentration, beta-lactamase negative, strain SSC 79-5, Table II) 1 µg/mL (≈ 2.2 µM); (read-out: Minimal Inhibitory Concentration, beta-lactamase negative, strain SSC 79-7, Table II) 0.5 µg/mL (≈ 1.1 µM); (read-out: Minimal Inhibitory Concentration, beta-lactamase negative, strain SSC 79-9, Table II) 0.5 µg/mL (≈ 1.1 µM); (read-out: Minimal Inhibitory Concentration, beta-lactamase negative, strain SSC 79-10, Table II) 0.5 µg/mL (≈ 1.1 µM); (read-out: Minimal Inhibitory Concentration, beta-lactamase negative, strain SSC 79-11, Table II) 0.5 µg/mL (≈ 1.1 µM). For the same compound, the MIC is, setting by setting: (read-out: Minimal Inhibitory Concentration, beta-lactamase negative, strain SSC 79-14, Table II) 2 µg/mL (≈ 4.39 µM); (read-out: Minimal Inhibitory Concentration, beta-lactamase negative, strain SSC 79-15, Table II) 2 µg/mL (≈ 4.39 µM); (read-out: Minimal Inhibitory Concentration, beta-lactamase negative, strain SSC 79-17, Table II) 1 µg/mL (≈ 2.2 µM); (read-out: Minimal Inhibitory Concentration, beta-lactamase positive, strain SSC 79-24, Table II) 16 µg/mL (≈ 35.1 µM); (read-out: Minimal Inhibitory Concentration, beta-lactamase positive, strain SSC 79-27, Table II) 1 µg/mL (≈ 2.2 µM); (read-out: Minimal Inhibitory Concentration, beta-lactamase positive, strain SSC 79-28, Table II) 1 µg/mL (≈ 2.2 µM). Moreover, the MIC was found to be 1 µg/mL (≈ 2.2 µM) (read-out: Minimal Inhibitory Concentration, beta-lactamase positive, strain SSC 79-36, Table II); 1 µg/mL (≈ 2.2 µM) (read-out: Minimal Inhibitory Concentration, beta-lactamase positive, strain SSC 79-38, Table II); 1 µg/mL (≈ 2.2 µM) (read-out: Minimal Inhibitory Concentration, beta-lactamase positive, strain SSC 79-39, Table II); 2 µg/mL (≈ 4.39 µM) (read-out: Minimal Inhibitory Concentration, beta-lactamase positive, strain SSC 79-41, Table II); 1 µg/mL (≈ 2.2 µM) (read-out: Minimal Inhibitory Concentration, beta-lactamase positive, strain SSC 79-44, Table II); 1 µg/mL (≈ 2.2 µM) (read-out: Minimal Inhibitory Concentration, beta-lactamase positive, strain SSC 79-47, Table II).
As to `CO/N=C(\C(=O)N[C@@H]1C(=O)N2C(C(=O)O)=C(CSc3nnnn3C)CS[C@H]12)c1csc(N)n1` [Compound III, Cefmenoxime], the MIC stood at 1 µg/mL (≈ 1.95 µM) under setting [1]; 4 µg/mL (≈ 7.82 µM) under setting [2]; 1 µg/mL (≈ 1.95 µM) under setting [3]; 2 µg/mL (≈ 3.91 µM) under setting [4]; 1 µg/mL (≈ 1.95 µM) under setting [5]; 1 µg/mL (≈ 1.95 µM) under setting [6]. For the same compound, the MIC reads like this: under setting [7], 4 µg/mL (≈ 7.82 µM); under setting [8], 4 µg/mL (≈ 7.82 µM); under setting [9], 2 µg/mL (≈ 3.91 µM); under setting [10], 32 µg/mL (≈ 62.6 µM); under setting [11], 2 µg/mL (≈ 3.91 µM); under setting [12], 2 µg/mL (≈ 3.91 µM). Also, the MIC is, setting by setting: under setting [13], 2 µg/mL (≈ 3.91 µM); under setting [14], 2 µg/mL (≈ 3.91 µM); under setting [15], 4 µg/mL (≈ 7.82 µM); under setting [16], 4 µg/mL (≈ 7.82 µM); under setting [17], 2 µg/mL (≈ 3.91 µM); under setting [18], 2 µg/mL (≈ 3.91 µM).
As to `CO[C@@]1(NC(=O)Cc2cccs2)C(=O)N2C(C(=O)O)=C(COC(N)=O)CS[C@@H]21` [Compound VI, Cefoxitin], the MIC is, setting by setting: under setting [1], 2 µg/mL (≈ 4.68 µM); under setting [2], 2 µg/mL (≈ 4.68 µM); under setting [3], 1 µg/mL (≈ 2.34 µM); under setting [4], 1 µg/mL (≈ 2.34 µM); under setting [5], 1 µg/mL (≈ 2.34 µM); under setting [6], 1 µg/mL (≈ 2.34 µM). In addition, the MIC is, setting by setting: under setting [7], 2 µg/mL (≈ 4.68 µM); under setting [8], 4 µg/mL (≈ 9.36 µM); under setting [9], 2 µg/mL (≈ 4.68 µM); under setting [10], 16 µg/mL (≈ 37.4 µM); under setting [11], 2 µg/mL (≈ 4.68 µM); under setting [12], 2 µg/mL (≈ 4.68 µM). Moreover, the MIC runs as follows: under setting [13], 2 µg/mL (≈ 4.68 µM); under setting [14], 2 µg/mL (≈ 4.68 µM); under setting [15], 4 µg/mL (≈ 9.36 µM); under setting [16], 4 µg/mL (≈ 9.36 µM); under setting [17], 2 µg/mL (≈ 4.68 µM); under setting [18], 2 µg/mL (≈ 4.68 µM).
On to `CO/N=C(\C(=O)N[C@@H]1C(=O)N2C(C(=O)O)=CCS[C@H]12)c1csc(N)n1` [Compound IV, Ceftizoxime], for which the MIC under setting [1] was 1 µg/mL (≈ 2.61 µM); the MIC under setting [2] is 1 µg/mL (≈ 2.61 µM); the MIC under setting [3] worked out at 0.5 µg/mL (≈ 1.3 µM); the MIC under setting [4] was determined as 1 µg/mL (≈ 2.61 µM); the MIC under setting [5] came to 1 µg/mL (≈ 2.61 µM); the MIC under setting [6] turned out to be 0.5 µg/mL (≈ 1.3 µM). Further, the MIC reads like this: under setting [7], 4 µg/mL (≈ 10.4 µM); under setting [8], 1 µg/mL (≈ 2.61 µM); under setting [9], 1 µg/mL (≈ 2.61 µM); under setting [10], greater than 128 µg/mL; under setting [11], 0.5 µg/mL (≈ 1.3 µM); under setting [12], 0.5 µg/mL (≈ 1.3 µM). For the same compound, the MIC by setting is: under setting [13], 1 µg/mL (≈ 2.61 µM); under setting [14], 0.5 µg/mL (≈ 1.3 µM); under setting [15], 4 µg/mL (≈ 10.4 µM); under setting [16], 1 µg/mL (≈ 2.61 µM); under setting [17], 0.5 µg/mL (≈ 1.3 µM); under setting [18], 1 µg/mL (≈ 2.61 µM).
